Measured values taken from patent publication US20240041042A1, “1-(PYRIDYL)-5-AZINYLPYRAZOLE DERIVATIVES, AND THEIR USE FOR CONTROL OF UNDESIRED PLANT GROWTH” (Bayer Aktiengesellschaft, priority 2020, published 2024).

Key:
Assay type in all cases: in vivo
[1] = test system: Verconica persica (VERPE); assay: Pre-emergence herbicidal action against VERPE
Method in brief: (§1)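 Seeds sown in pots and covered with soil; WP or EC formulations sprayed onto the soil surface at 600 l/ha water with 0.5% additive, at 320 g/ha or lower. Greenhouse growth for about 3 weeks, then visual scoring as % effect against untreated controls (100% = plants dead).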

Setaria viridis (SETVI) = assay: Pre-emergence herbicidal action against SETVI
Method in brief: as §1

[2] = test system: Matricaria inodora (MATIN); assay: Post-emergence herbicidal action against MATIN; conditions: dosage 320 g/ha
Method in brief: (§2)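 Post-emergence greenhouse spray, one-leaf stage, 600 l/ha water plus 0.5% additive; WP or EC formulations; application rates 320 g/ha or lower. Visual % damage vs untreated controls at ~3 weeks.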

[3] = test system: Amaranthus retroflexus (AMARE); assay: Post-emergence herbicidal action against AMARE
Method in brief: as §2

[4] = test system: Abutilon theophrasti (ABUTH); assay: Pre-emergence herbicidal action against ABUTH; conditions: 100% = plants have died
Method in brief: as §1

Viola tricolor (VIOTR) [5] = assay: Pre-emergence herbicidal action against VIOTR
Method in brief: as §1

Viola tricolor (VIOTR) [6] = assay: Post-emergence herbicidal action against VIOTR
Method in brief: as §2

Lolium rigidum (LOLRI) = assay: Pre-emergence herbicidal action against LOLRI
Method in brief: as §1

[7] = test system: Abutilon theophrasti (ABUTH); assay: Post-emergence herbicidal action against ABUTH; conditions: visual rating about 3 weeks after treatment vs untreated controls (100% = plants have died, 0% = like control plants)
Method in brief: as §2

[8] = test system: Verconica persica (VERPE); assay: Post-emergence herbicidal action against VERPE
Method in brief: as §2

[9] = 80 g/ha, visual rating about 3 weeks after treatment vs untreated controls (100% = plants have died, 0% = like control plants)
[10] = 320 g/ha, visual rating about 3 weeks after treatment
[11] = Dosage column 320 g/ha (title prints 3200 g/ha), scored visually after about 3 weeks
[12] = 80 g/ha, scored visually after about 3 weeks vs untreated controls, 0% = like control plants

| SMILES | Pre-emergence action against VERPE in % ([1]; dosage 80 g/ha) [%] | Pre-emergence action against VERPE in % ([1]; dosage 320 g/ha) [%] | Pre-emergence action against SETVI in % (Setaria viridis (SETVI); dosage 80 g/ha) [%] | Pre-emergence action against SETVI in % (Setaria viridis (SETVI); dosage 320 g/ha) [%] | Post-emergence action against MATIN in % [2] [%] | Post-emergence action against AMARE in % [3, 9] [%] | Post-emergence action against AMARE in % [3, 10] [%] | Pre-emergence action against ABUTH [4, 11] [%] | Pre-emergence action against VIOTR in % (Viola tricolor (VIOTR) [5]; 320 g/ha, Viola tricolor) [%] | Pre-emergence action against VIOTR in % (Viola tricolor (VIOTR) [5]; dosage 80 g/ha) [%] | Post-emergence action against VIOTR in % (Viola tricolor (VIOTR) [6]; 80 g/ha) [%] | Post-emergence action against VIOTR in % (Viola tricolor (VIOTR) [6]; 320 g/ha) [%] | Pre-emergence action against LOLRI in % (Lolium rigidum (LOLRI); dosage 80 g/ha) [%] | Pre-emergence action against LOLRI in % (Lolium rigidum (LOLRI); dosage 320 g/ha) [%] | Post-emergence action against ABUTH in % ([7]; 80 g/ha) [%] | Post-emergence action against ABUTH in % ([7]; 320 g/ha) [%] | Post-emergence action against VERPE in % ([8]; 320 g/ha, VERPE) [%] | Post-emergence action against VERPE in % ([8]; dosage 80 g/ha) [%] | Pre-emergence action against ABUTH [4, 12] [%] |
| --- | --- | --- | --- | --- | --- | --- | --- | --- | --- | --- | --- | --- | --- | --- | --- | --- | --- | --- | --- |
| COC(=O)[C@@H](C)Oc1nn(-c2ncccc2F)c(-c2ccc(F)nc2)c1Br [Example I-05, Methyl (2R)-2-{[4-bromo-1-(3-fluoropyridin-2-yl)-5-(6-fluoropyridin-3-yl)-1H-pyrazol-3-yl]oxy}propanoate] | 100 | 100 | 100 | 100 | 100 | 90 | 90 | 80 | 100 | 90 | 100 | 100 | 80 | 100 | 80 | 80 | 90 | 90 |  |
| COC(=O)C(C)COC(=O)[C@@H](C)Oc1nn(-c2ccccn2)c(-c2cncc(F)c2)c1Br (stereo partly shown) [Example I-188] | 100 | 100 | 100 | 100 | 80 |  | 80 | 90 | 100 | 100 | 80 | 80 | 100 | 100 | 80 | 80 | 90 | 80 | 80 |
| C[C@@H](Oc1nn(-c2ncccc2F)c(-c2ccc(F)nc2)c1C1CC1)C(=O)O [Example I-342] | 90 | 100 | 90 | 100 | 100 | 90 | 90 | 90 | 100 | 100 | 90 | 90 | 100 | 100 | 80 | 90 | 90 | 90 |  |
| COC(=O)CCOC(=O)[C@@H](C)Oc1nn(-c2ccccn2)c(-c2cncc(F)c2)c1Cl [Example I-196] | 90 | 100 | 90 | 100 | 80 | 80 | 80 | 90 | 100 | 90 | 80 | 80 | 100 | 100 | 80 | 80 | 90 | 80 | 80 |
| COC(=O)[C@@H](C)Oc1nn(-c2nc(F)ccc2F)c(-c2cncc(F)c2)c1Br [Example I-191] | 100 | 100 | 80 | 100 | 80 | 80 | 80 | 90 | 100 | 100 |  | 80 | 90 | 90 | 80 | 80 | 90 | 80 |  |
| CCOC(=O)[C@@H](C)Oc1nn(-c2ccccn2)c(-c2cncc(F)c2)c1Cl [Example I-184] | 90 | 100 | 100 | 100 | 80 | 80 | 80 | 90 | 100 | 100 | 80 | 90 | 100 | 100 | 80 | 90 | 90 | 90 | 90 |
